Test results from US9445597B2, “Pesticidal compositions and related methods” (DOW AGROSCIENCES LLC, priority 2013, dated 2016).
Where two headings read alike, the source gives them in different places.

How the values were obtained:
[1] = system: Sweetpotato Whitefly-crawler (WF) (Bemisia tabaci) (BEMITA); test: Insecticidal test for Sweetpotato Whitefly-crawler (WF) in foliar spray assay on cotton plants; assay type: in vivo; conditions: 216 h, read-out: % Control (or Mortality) rating, WF
Description: Example B: Insecticidal test for Sweetpotato Whitefly-crawler (WF) (Bemisia tabaci) (BEMITA) in foliar spray assay.
Cotton plants (Gossypium hirsutum) grown in 3-inch pots, with 1 small (4-5 cm) true leaves, were used as test substrate. The plants were infested with 200-400 whitefly eggs 4-5 days prior to chemical application. Four pots with individual plants were used for each treatment. Test compounds (2 mg) were dissolved in 1 mL of acetone solvent, forming stock solutions of 2000 ppm test compound. The stock solutions were diluted 10× with 0.025% Tween 20 in H2O (diluents) to obtain the solution at 200 ppm test compound. A hand-held aspirator-type sprayer was used for spraying a solution to both sides of cotton leaves until runoff. Reference plants (solvent check) were sprayed with the diluent only containing 10% by volume of acetone solvent. Treated plants were held in a holding room for 9 days at approximately 25° C. and ambient relative humidity (RH) prior to grading. Evaluation was conducted by counting the number of live 3-4 nymph stage per plant under a microscope. Percent control was measured by using Abbott's correction formula (W. S. Abbott, “A Method of Computing the Effectiveness of an Insecticide” J. Econ. Entomol. 18 (1925), pp. 265-267) as follows. Corrected % Control=100*(X−Y)/X • where • X=No. of live nymphs on solvent check plants and • Y=No. of live nymphs on treated plants.
(§1) Biological Data for Green Peach Aphid (GPA) (MYZUPE) and Sweetpotato Whitefly-crawler (WF) (BEMITA)” (see table section).

[2] = system: Green Peach Aphid (Myzus persicae) (GPA) (MYZUPE); test: Bioassay for Green Peach Aphid (GPA), foliar spray on cabbage seedlings; assay type: in vivo; conditions: 72 h, read-out: % Control (or Mortality) rating, GPA
Description: Example A: Bioassay for Green Peach Aphid (Myzus persicae) (GPA) (MYZUPE).
Cabbage seedlings grown in 3-inch pots, with 2-3 small (3-5 cm) true leaves, were used as test substrate. The seedlings were infested with 20-50 GPA (wingless adult and nymph stages) one day prior to chemical application. Four pots with individual seedlings were used for each treatment. Test compounds (2 mg) were dissolved in 2 mL of acetone/methanol (1:1) solvent, forming stock solutions of 1000 ppm test compound. The stock solutions were diluted 5× with 0.025% Tween 20 in H2O to obtain the solution at 200 ppm test compound. A hand-held aspirator-type sprayer was used for spraying a solution to both sides of […] leaves until runoff. Reference plants (solvent check) were sprayed with the diluent only containing 20% by volume of acetone/methanol (1:1) solvent. Treated plants were held in a holding room for three days at approximately 25° C. and ambient relative humidity (RH) prior to grading. Evaluation was conducted by counting the number of live aphids per plant under a microscope. Percent control was measured by using Abbott's correction formula (W. S. Abbott, “A Method of Computing the Effectiveness of an Insecticide” J. Econ. Entomol. 18 (1925), pp. 265-267) as follows. Corrected % Control=100*(X−Y)/X • where • X=No. of live aphids on solvent check plants and • Y=No. of live aphids on treated plants
as §1

[3] = 200 ppm foliar spray, cotton plants, graded after 9 days, Abbott corrected % control
[4] = 200 ppm foliar spray, cabbage seedlings, graded after three days, Abbott corrected % control

SMILES	mortality at 200 ppm ([1]; foliar) [%]	mortality at 200 ppm ([2]; foliar) [%]	mortality at 200 ppm [1, 3] [%]	mortality at 200 ppm [2, 4] [%]
Cc1nc(-c2cc(F)c[n+]([O-])c2)sc1N(C)C(=O)OC(C)(C)C [CA1, 3-(5-((tert-Butoxycarbonyl)(methyl)amino)-4-methylthiazol-2-yl)-5-fluoropyridine 1-oxide]	0 to 80	80 to 100	–	–
CSCCC(=O)Nc1sc(-c2cccnc2)nc1Cl [Compound C3, N-(4-chloro-2-(pyridin-3-yl)thiazol-5-yl)-3-(methylthio)propanamide]	–	–	0 to 80	80 to 100
CC(CS(C)(=O)=O)C(=O)N(C)c1sc(-c2ccc[n+]([O-])c2)nc1Cl (centres unmarked) [Compound F1, 3-(4-Chloro-5-(N,2-dimethyl-3-(methylsulfonyl)propanamido)thiazol-2yl) pyridine 1-oxide]	–	–	0 to 80	80 to 100
CS(=O)(=O)CCC(=O)Nc1sc(-c2ccc[n+]([O-])c2)nc1Cl [Compound F2]	–	–	0 to 80	80 to 100
CCN(C(=O)CCS(C)(=O)=O)c1sc(-c2ccc[n+]([O-])c2)nc1Cl [Compound F3, 3-(4-chloro-5-(N-ethyl-3-(methylsulfonyl)propanamido)thiazol-2-yl)pyridine 1-oxide]	–	–	80 to 100	80 to 100
CCN(C(=O)CCSCCC(F)(F)F)c1sc(-c2ccc[n+]([O-])c2)nc1Cl [Compound P1, 3-(4-chloro-5-(N-ethyl-3-((3,3,3-trifluoropropyl)thio)propanamido)thiazol-2-yl)pyridine 1-oxide]	–	–	80 to 100	80 to 100
CCN(C(=O)CC[S+]([O-])CCC(F)(F)F)c1sc(-c2ccc[n+]([O-])c2)nc1Cl (centres unmarked) [Compound P2, 3-(4-Chloro-5-(N-ethyl-3-((3,3,3-trifluoropropyl)sulfinyl)propanamido)thiazol-2-yl)pyridine 1-oxide]	–	–	80 to 100	80 to 100
CCN(C(=O)CCS(=O)(=O)CCC(F)(F)F)c1sc(-c2ccc[n+]([O-])c2)nc1Cl [Compound P3, 3-(4-Chloro-5-(N-ethyl-3-((3,3,3-trifluoropropyl)sulfonyl)propanamido)thiazol-2-yl)pyridine 1-oxide]	–	–	80 to 100	80 to 100
CCN(C(=O)CCSC)c1sc(-c2ccc[n+]([O-])c2)nc1Cl [Compound P4, 3-(4-Chloro-5-(N-ethyl-3-(methylthio)propanamido)thiazol-2-yl) pyridine 1-oxide]	–	–	80 to 100	80 to 100
CCN(C(=O)CC[S+](C)[O-])c1sc(-c2ccc[n+]([O-])c2)nc1Cl (centres unmarked) [Compound P5, 3-(4-Chloro-5-(N-ethyl-3-(methylsulfinyl)propanamido)thiazol-2-yl)pyridine 1-oxide]	–	–	80 to 100	80 to 100
CCN(C(=O)C(C)CSC)c1sc(-c2ccc[n+]([O-])c2)nc1Cl (centres unmarked) [Compound P6, 3-(4-Chloro-5-(N-ethyl-2-methyl-3-(methylthio)propanamido)thiazol-2-yl)pyridine 1-oxide]	–	–	80 to 100	80 to 100
CCN(C(=O)C(C)C[S+](C)[O-])c1sc(-c2ccc[n+]([O-])c2)nc1Cl (centres unmarked) [Compound P7, 3-(4-Chloro-5-(N-ethyl-2-methyl-3-(methylsulfinyl)propanamido)thiazol-2-yl)pyridine 1-oxide]	–	–	80 to 100	80 to 100
CCN(C(=O)C(C)CS(C)(=O)=O)c1sc(-c2ccc[n+]([O-])c2)nc1Cl (centres unmarked) [Compound P8, 3-(4-Chloro-5-(N-ethyl-2-methyl-3-(methylsulfonyl)propanamido)thiazol-2-yl)pyridine 1-oxide]	–	–	80 to 100	80 to 100
CSCCC(=O)N(C)c1sc(-c2cc(F)c[n+]([O-])c2)nc1C [FA1, 3-Fluoro-5-(4-methyl-5-(N-methyl-3-(methylthio)propanamido)thiazol-2-yl)pyridine 1-oxide]	–	–	80 to 100	80 to 100
Cc1nc(-c2cc(F)c[n+]([O-])c2)sc1N(C)C(=O)CCS(C)(=O)=O [FA2, 3-Fluoro-5-(4-methyl-5-(N-methyl-3-(methylsulfonyl)propanamido)thiazol-2-yl)pyridine 1-oxide]	–	–	80 to 100	80 to 100
Cc1nc(-c2cc(F)c[n+]([O-])c2)sc1N(C)C(=O)CC[S+](C)[O-] (centres unmarked) [FA3, 3-Fluoro-5-(4-methyl-5-(N-methyl-3-(methylsulfinyl)propanamido)thiazol-2-yl)pyridine 1-oxide]	–	–	80 to 100	80 to 100
